Data taken from PMC12668310, “High‐Throughput Synthesis and Screening of a Cyanimide Library Identifies Selective Inhibitors of ISG15‐Specific Protease mUSP18” (Angewandte Chemie (International Ed. in English), 2025).

Key:
mUSP18 [1] = molecular target: T1, mUSP18 (Mus musculus, UniProt Q9WTV6); experiment: High-throughput screening, ISG15ct-RhoMP, single dose 1.25 µM; assay type: biochemical, murine; conditions: crude in-plate synthesized compound, 1.25 µM assuming full conversion; read-out: %inhibition mUSP18
T1 construct: (46-368); His-tag (N); made in house
T1 sequence (Q9WTV6 46-368): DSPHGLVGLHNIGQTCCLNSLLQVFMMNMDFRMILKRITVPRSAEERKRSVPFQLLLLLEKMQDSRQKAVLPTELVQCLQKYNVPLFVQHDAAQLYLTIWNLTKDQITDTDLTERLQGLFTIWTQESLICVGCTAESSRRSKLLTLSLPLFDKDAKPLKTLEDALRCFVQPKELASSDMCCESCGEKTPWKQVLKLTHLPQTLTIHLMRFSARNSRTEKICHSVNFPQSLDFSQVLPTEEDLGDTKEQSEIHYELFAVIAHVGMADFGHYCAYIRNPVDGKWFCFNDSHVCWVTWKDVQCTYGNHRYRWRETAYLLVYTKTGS

USP32 = molecular target: T2, USP32 (Homo sapiens, UniProt Q8NFA0); experiment: IC50 determination, fluorogenic Ub-Rho-morpholine activity assay; assay type: biochemical; conditions: after 30 min incubation; purified compound
T2 construct: (1-1604); His-tag (N); made in house

USP7 = molecular target: T3, USP7 (Homo sapiens, UniProt Q93009); experiment: as above; assay type: biochemical; conditions: after 30 min incubation; purified compound
T3 construct: (1-1102); GST (cleaved yes); made in house

USP30 [2] = molecular target: T4, USP30 (Homo sapiens, UniProt Q70CQ3); experiment: High-throughput screening, Ub-RhoMP, single dose 1.25 µM; assay type: biochemical; parameters: USP30 CD (57-517); purchased Ubiquigent 64-0057-050; conditions: crude in-plate synthesized compound, 1.25 µM assuming full conversion
T4 sequence (Q70CQ3 57-517): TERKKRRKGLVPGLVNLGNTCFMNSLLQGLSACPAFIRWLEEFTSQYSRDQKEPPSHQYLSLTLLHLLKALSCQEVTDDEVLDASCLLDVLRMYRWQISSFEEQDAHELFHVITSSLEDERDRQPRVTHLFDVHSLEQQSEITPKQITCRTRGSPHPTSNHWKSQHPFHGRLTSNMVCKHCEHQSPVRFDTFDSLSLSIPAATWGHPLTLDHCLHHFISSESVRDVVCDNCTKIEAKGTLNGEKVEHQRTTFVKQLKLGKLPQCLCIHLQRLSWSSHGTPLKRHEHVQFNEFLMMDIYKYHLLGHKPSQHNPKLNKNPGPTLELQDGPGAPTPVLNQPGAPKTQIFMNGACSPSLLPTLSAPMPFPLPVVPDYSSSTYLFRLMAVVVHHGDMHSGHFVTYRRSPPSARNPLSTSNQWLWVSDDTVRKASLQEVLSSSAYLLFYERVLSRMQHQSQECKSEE
Protocol: Since the in‐plate synthesis was conducted in 1536‐well Echo plates, the compounds could readily be transferred from these plates into 1536‐well assay plates using acoustic liquid dispensing (Figure 2a) and subjected to HTS. We screened the whole 7536 compound library against a panel of twelve enzymes, including three DUBs from the UCH family, two DUBs from the OTU family, five DUBs from the USP family, plus ISG15 protease USP18, and SUMO protease SENP1. Each compound was tested at a single dose of 1.25 µM, assuming full conversion (10 mM in DMSO of the formed products) during the in‐plate synthesis, using the fluorogenic assay described above. […] The compounds are sorted by the amine building blocks (BB1‐16), and within each BB, sorted by carboxylic acid (CA1‐471), thereby providing a comprehensive and systematic overview of the overall inhibition by each BB and CA combination. Some interesting patterns can be obtained from this map. […] Indeed, BB10 is the privileged scaffold for UCHL1 as it originates from UCHL1 inhibitor 5 (Figure 1). […] On the other hand, OTUD1 and USP32 show a much higher hit rate, and this is even more pronounced for USP30 and ISG15 protease mUSP18, each showing many active compounds distributed over several BB's.
Purified recombinant enzymes used in this study
High-throughput screening
The screens were performed at room temperature in “flat bottom, non-treated, black […]
µM. The compounds (10 nL each) were transferred from the 1 mM daughter plates to the […]
Four wells containing DMSO
(10 nL) and four wells containing NEM (10 mM final concentration) were used in each plate […]
solution (1.33x final concentration) was added to each well, followed by incubation for 30 min.
Next, 2 µL of a substrate solution (4x final concentration) was added to each well (Ub-RhoMP[2]
After 1h or 2h incubation the
The percentage inhibition was calculated for each well using the […]
Where FIx is the fluorescence intensity of each well, FIpos is the average fluorescence intensity of the positive (NEM) control wells, and FIneg is the average fluorescence intensity of the negative (DMSO) control wells.

USP16 = USP16 (Homo sapiens, UniProt Q9Y5T5); experiment: biochemical
Protocol: (§1) This panel included five proteases from the USP family, two from the UCH family, and one OTU. The IC50 values were determined in a well‐established biochemical activity assay using the fluorogenic substrate Ub‐Rho‐morpholine.^[ [33] ^]
(§2) Enzymes were pre-incubated with a concentration series of the compounds for 30 minutes at
(§3) room temperature, before addition of the substrate and direct read-out by fluorescence
(§4) intensity. Data is presented as mean ± SD, n=3.
(§5) USP16 Full length N-terminal His-tag Q9Y5T5 In-house, [Mons, 2 nM
IC50 and kinact/KI determination
(§6) The assays were performed at room temperature in “nonbinding surface flat bottom low flange”
(§7) TrisꞏHCl, 100 mM NaCl, pH 7.6, 2.0 mM cysteine, 1 mg/mL 3-[(3-cholamidopropyl)-
(§8) dimethylammonio]propanesulfonic acid (CHAPS), and 0.5 mg/mL γ-globulins from bovine
(§9) blood (BGG). […] The compounds were dissolved in 10
(§10) mM DMSO stocks, and appropriate volumes were transferred to the empty plates using a
(§11) Labcyte Echo550 acoustic dispenser. A DMSO back-fill was performed to obtain equal volumes of DMSO (400 μL) in each well. N-ethylmaleimide (NEM, 10 mM) was used a positive
(§12) steps were performed on a Biotek MultiflowFX liquid dispenser. A 10 μL portion of buffer was added and the plate was vigorously shaken for 20s. Next, 5 μL of recombinant enzyme (4x final concentration) was added followed by incubation for 1h. A 5 μL portion of the substrate
(§13) (Ub-RhoMP[2] for all DUBs, ISG15ct-RhoMP (vide supra) for USP18 and Z-FR-AMC [Bachem,
(§14) RhoMP, 10 µM for Z-FR-AMC), and the increase in fluorescence over time was recorded using
(§15) excitation 360 nm, emission 450 nm for AMC). The initial enzyme velocities were calculated
(§16) from the slopes, normalized to the positive and negative controls, and plotted against the
(§17) inhibitor concentrations using the built-in equation “[inhibitor] vs response − variable slope
(§18) (four parameters), least-squares fit” with constraints “Bottom = 0” and “Top = 100” in GraphPad
(§19) Prism 7 software to obtain the IC50 values.
(§20) All data fitting and calculations were done using GraphPad Prism 7 software.

OTUB2 = molecular target: T5, OTUB2 (Homo sapiens, UniProt Q96DC9); experiment: biochemical
T5 sequence (Q96DC9 1-234): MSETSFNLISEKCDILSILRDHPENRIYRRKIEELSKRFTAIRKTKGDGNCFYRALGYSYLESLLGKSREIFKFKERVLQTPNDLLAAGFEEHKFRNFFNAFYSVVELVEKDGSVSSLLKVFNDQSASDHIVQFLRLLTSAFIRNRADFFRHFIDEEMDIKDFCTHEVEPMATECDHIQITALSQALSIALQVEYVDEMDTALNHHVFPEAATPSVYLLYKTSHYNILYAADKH
Protocol: as §1, §2, §3, §4, §5
IC50 and kinact/KI determination
as §6, §7, §8, §9, §10, §11
steps were performed on a Biotek MultiflowFX liquid dispenser. […]
as §14
excitation 360 nm, emission 450 nm for AMC). The initial enzyme velocities were calculated […]

UCHL1 = molecular target: T6, UCHL1 (Homo sapiens, UniProt P09936); experiment: IC50 determination, fluorogenic Ub-Rho-morpholine activity assay; assay type: biochemical; conditions: after 30 min incubation; purified compound
T6 construct: (1-223); made in house
T6 sequence (P09936 1-223): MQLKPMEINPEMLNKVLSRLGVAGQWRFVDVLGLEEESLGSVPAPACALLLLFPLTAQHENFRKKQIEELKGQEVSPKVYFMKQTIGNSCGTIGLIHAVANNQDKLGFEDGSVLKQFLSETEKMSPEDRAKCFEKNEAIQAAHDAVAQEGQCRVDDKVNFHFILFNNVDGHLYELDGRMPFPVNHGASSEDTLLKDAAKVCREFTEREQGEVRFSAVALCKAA

USP30 [3] = molecular target: T4, USP30; experiment: biochemical
Protocol: This panel included five proteases from the USP family, two from the UCH family, and one OTU. The IC50 values were determined in a well‐established biochemical activity assay using the fluorogenic substrate Ub‐Rho‐morpholine.^[ [33] ^] For USP18, which is unreactive to Ub but specific for ISG15, we used the ISG15CT‐Rho‐morpholine (consisting of the C‐terminal domain of ISG15) substrate to monitor its activity (see Supporting Information for preparation of this substrate).
as §2, §3, §4
room temperature, followed by the addition of substrate and direct read-out by fluorescence
IC50 and kinact/KI determination
as §6, §7, §8, §9, §10, §11, §12, §13, §14, §15, §16, §17, §18, §19, §20

UCHL3 = molecular target: T7, UCHL3 (Homo sapiens, UniProt P15374); experiment: IC50 determination, fluorogenic Ub-Rho-morpholine activity assay; assay type: biochemical; conditions: after 30 min incubation; purified compound
T7 construct: (1-230); made in house
T7 sequence (P15374 1-230): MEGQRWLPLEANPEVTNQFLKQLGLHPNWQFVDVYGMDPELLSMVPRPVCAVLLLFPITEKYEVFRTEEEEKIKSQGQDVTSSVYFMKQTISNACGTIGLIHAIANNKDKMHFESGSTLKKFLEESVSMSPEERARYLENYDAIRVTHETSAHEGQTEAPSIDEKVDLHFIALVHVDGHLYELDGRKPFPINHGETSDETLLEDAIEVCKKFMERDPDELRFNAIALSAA

mUSP18 [4] = molecular target: T1, mUSP18; experiment: IC50 determination, fluorogenic ISG15CT-Rho-morpholine activity assay; assay type: biochemical, murine; conditions: after 30 min incubation; purified compound; ISG15CT-Rho-morpholine substrate

T2 sequence (Q8NFA0 whole entry): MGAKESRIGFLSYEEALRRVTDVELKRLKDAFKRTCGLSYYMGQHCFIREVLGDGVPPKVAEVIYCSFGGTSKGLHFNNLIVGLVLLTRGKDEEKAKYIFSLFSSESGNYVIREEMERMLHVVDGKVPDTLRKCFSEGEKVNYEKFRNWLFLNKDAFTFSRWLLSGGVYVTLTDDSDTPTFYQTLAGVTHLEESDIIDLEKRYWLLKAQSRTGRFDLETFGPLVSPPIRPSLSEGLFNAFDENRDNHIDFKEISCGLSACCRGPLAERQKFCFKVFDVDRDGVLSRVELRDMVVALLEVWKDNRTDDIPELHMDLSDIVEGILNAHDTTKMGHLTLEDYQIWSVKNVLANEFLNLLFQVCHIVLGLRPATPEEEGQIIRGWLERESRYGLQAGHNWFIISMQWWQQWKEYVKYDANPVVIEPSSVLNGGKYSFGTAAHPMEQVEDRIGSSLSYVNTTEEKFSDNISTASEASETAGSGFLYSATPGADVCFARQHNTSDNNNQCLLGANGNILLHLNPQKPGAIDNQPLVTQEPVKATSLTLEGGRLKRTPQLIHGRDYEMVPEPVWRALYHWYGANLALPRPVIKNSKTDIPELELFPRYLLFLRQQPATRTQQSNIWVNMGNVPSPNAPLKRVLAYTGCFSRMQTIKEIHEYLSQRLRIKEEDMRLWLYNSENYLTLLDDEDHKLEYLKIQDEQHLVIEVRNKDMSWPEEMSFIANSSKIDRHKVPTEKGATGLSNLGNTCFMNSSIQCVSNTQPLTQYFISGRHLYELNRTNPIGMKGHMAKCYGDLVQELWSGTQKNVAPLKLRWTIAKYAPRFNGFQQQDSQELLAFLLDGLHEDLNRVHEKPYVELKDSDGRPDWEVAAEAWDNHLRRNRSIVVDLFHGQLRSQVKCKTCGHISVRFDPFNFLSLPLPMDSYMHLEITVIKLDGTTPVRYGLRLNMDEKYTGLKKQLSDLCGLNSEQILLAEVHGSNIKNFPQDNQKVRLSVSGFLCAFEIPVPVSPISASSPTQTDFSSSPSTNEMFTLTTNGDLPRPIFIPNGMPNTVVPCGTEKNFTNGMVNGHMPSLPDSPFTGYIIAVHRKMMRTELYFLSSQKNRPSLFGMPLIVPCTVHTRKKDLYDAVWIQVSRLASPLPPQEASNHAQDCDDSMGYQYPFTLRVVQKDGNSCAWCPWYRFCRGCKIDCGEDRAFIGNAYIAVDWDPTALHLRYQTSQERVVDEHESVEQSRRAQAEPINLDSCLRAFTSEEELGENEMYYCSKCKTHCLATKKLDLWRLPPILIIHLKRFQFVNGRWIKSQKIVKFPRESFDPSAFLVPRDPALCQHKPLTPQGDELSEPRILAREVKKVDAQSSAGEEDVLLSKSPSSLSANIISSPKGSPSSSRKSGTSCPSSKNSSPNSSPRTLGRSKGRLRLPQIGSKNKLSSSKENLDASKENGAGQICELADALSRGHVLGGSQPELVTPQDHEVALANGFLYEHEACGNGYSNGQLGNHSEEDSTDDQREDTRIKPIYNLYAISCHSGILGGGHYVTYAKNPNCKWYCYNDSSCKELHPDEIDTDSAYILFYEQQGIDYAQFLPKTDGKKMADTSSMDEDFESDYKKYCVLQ
T3 sequence (Q93009 whole entry): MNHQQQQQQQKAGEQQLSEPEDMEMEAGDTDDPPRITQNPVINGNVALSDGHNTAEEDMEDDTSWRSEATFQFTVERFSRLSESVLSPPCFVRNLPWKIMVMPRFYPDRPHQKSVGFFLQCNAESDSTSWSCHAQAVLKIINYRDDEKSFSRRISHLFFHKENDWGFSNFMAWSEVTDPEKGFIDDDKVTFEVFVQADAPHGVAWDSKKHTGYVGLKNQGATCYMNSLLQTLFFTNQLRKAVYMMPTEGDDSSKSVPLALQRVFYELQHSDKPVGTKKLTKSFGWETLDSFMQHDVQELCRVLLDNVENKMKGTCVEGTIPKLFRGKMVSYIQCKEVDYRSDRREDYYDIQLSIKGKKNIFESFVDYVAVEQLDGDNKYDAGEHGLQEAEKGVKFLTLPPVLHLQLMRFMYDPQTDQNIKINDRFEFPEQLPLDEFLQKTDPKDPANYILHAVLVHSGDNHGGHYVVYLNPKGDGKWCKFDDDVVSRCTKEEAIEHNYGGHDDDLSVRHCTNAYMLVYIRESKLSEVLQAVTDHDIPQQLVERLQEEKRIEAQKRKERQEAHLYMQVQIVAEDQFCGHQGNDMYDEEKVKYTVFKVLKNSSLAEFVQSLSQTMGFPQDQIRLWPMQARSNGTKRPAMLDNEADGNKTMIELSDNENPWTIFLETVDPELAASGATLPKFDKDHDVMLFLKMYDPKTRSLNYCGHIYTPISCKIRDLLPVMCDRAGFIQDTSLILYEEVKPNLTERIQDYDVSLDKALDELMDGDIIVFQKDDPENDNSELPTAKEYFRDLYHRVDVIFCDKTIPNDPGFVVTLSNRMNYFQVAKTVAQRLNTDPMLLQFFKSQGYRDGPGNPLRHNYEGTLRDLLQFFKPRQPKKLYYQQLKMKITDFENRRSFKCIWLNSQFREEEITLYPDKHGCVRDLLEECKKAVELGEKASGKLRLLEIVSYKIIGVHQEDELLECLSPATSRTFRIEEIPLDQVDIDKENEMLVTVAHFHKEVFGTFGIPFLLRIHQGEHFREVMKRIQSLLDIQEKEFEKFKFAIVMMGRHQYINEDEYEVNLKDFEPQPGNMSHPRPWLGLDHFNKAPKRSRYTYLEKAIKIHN
Chain of USP16 (Q9Y5T5 22-823): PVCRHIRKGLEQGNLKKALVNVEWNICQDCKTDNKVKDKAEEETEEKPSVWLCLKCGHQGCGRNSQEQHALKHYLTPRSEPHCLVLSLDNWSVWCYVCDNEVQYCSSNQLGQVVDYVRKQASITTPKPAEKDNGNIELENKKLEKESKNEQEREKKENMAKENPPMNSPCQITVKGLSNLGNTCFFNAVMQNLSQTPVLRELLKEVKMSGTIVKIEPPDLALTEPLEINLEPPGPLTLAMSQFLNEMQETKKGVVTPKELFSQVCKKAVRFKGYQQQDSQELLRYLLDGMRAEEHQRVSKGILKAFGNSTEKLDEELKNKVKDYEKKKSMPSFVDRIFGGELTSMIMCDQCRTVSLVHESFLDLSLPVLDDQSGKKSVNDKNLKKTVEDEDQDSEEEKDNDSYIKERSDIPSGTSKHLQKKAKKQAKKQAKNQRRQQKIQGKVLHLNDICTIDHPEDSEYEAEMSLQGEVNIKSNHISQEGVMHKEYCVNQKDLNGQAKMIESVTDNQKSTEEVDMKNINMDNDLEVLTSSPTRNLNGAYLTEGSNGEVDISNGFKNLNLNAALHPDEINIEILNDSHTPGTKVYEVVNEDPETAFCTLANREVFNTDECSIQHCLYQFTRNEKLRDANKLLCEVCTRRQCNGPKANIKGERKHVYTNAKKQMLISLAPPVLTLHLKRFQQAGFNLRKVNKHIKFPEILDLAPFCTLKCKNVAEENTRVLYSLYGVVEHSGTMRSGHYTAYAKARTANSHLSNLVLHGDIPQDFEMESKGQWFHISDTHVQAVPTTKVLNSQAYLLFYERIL

Question: For `N#CN1CC[C@@H](NC(=O)c2cc(-c3cccc(Cl)c3)no2)C1` [Compound 1], which inhibition at 1.25 µM (mUSP18 [1]) is on record?
Answer: ~90%

Question: What about the IC50 (USP32) of the same compound?
Answer: 0.53 µM

Question: And the IC50 (USP7)?
Answer: 42 µM

Question: And the “%inhibition USP30” value (USP30 [2])?
Answer: ~90%

Question: What about the IC50 (USP16) of the same compound?
Answer: 5.1 µM

Question: And the IC50 (OTUB2)?
Answer: > 200 µM

Question: And the IC50 (UCHL1)?
Answer: 54 µM

Question: And the IC50 (USP30 [3])?
Answer: 0.043 µM

Question: What about the IC50 (UCHL3) of the same compound?
Answer: 229 µM

Question: And the IC50 (mUSP18 [4])?
Answer: 0.079 µM
